{"source": "patent US7586023B1", "about": "“Methods of conferring ppo-inhibiting herbicide resistance to plants by gene manipulation” (Sumitomo Chemical Company, Limited, priority 1996, dated 2009)", "key": {"[1]": {"system": "Chlamydomonas reinhardtii GB-2951", "experiment": "Herbicide resistance test of GB-2951 grown in TAP liquid media with various concentrations of the compounds", "assay_type": "cell-based", "conditions": "compared with wild type strain CC-125", "procedure": "Resistance of GB-2951 to several herbicides was tested by growing the strain in TAP liquid media containing various concentration of the compounds, according to the method described by Shibata et al. (Research in Photosynthesis, Vol III, pp. 567-570, Murata ed., c. 1992 by Kluwer Academic Publisher, Dordrecht, Netherlands). […] Moreover, GB-2951 was crossed to wild type strain CC-124 and several sets of tetrads were isolated according to the method as described by Harris (Harris, E. H., The Chlamydomonas Sourcebook, c. 1989 by Academic Press, San Diego, Calif.). All tetrads segregated two herbicide (compound A) sensitive and two herbicide-resistant progeny. In addition, tetrads from a cross of GB-2951 to RS-322, a porphyria herbicide-resistant isolate from a cross of RS-3 and CC-124, yielded no herbicide-sensitive progeny."}, "[2]": {"system": "E. coli strains with the cDNA encoding a herbicide-sensitive PPO (sensitive transformants)", "experiment": "Colony formation of herbicide-sensitive E. coli SASX38 transformants on LB+ampicillin agar with compound", "assay_type": "cell-based", "conditions": "particular concentration of Compound A, two days, compared to medium lacking Compound A", "description": "(§1) The plasmid vector containing the cDNA encoding a herbicide-sensitive PPO enzyme obtained in Example 2 or 9 is introduced into the mutant SASX38 strain of E. coli in which the endogenous the PPO gene (hemG locus) is deleted and herbicide-sensitive transformants are selected by the method in Example 2. Similarly, a cDNA encoding a herbicide-resistant PPO is obtained according to the method in Example 12, with a base pair alteration at the position of Val13 in SEQ. ID. NO.: 1, SEQ. ID. NO.: 2 and SEQ. ID. NO.: 3 resulting in the substitution of methionine for valine. Said cDNA is re-cloned in the plasmid vector pUC118 (Nishimura et al., J. Biol. Chem. 270: 8076 (1995)), and said plasmid vector is introduced into E. coli SASX38 to obtain herbicide-resistant transformants. Both sensitive and resistant transformants are separately plated on LB+ ampicillin agar medium supplemented with compound A at a given concentration, and incubated for two days. Colony formation is then evaluated to assess the growth of the sensitive and resistant transformants in the presence of the herbicide. […]"}, "[3]": {"system": "E. coli strains with a cDNA encoding a herbicide-resistant PPO (resistant transformants)", "experiment": "Colony formation of herbicide-resistant E. coli SASX38 transformants on LB+ampicillin agar with compound", "assay_type": "cell-based", "conditions": "same concentration of Compound A, compared to medium free of Compound A", "description": "as §1"}, "[4]": {"system": "crop plants transformed with the herbicide-resistant PPO gene", "experiment": "Weed control test, crop phytotoxicity in greenhouse", "assay_type": "in vivo", "conditions": "100 g/ha; either method (soil surface after sowing, 27 days; sprayed onto plants at 18 days, 20 days)", "procedure": "(§2) Flats with an area of 33×23 cm^2 and a depth of 11 cm are filled with upland field soil. Seeds of crop plants with herbicide-resistant PPO genes developed according to methods similar to those described in Example 16 are planted along with those of weeds such as Echinochloa crus-galli, Abutilon theophrasti and Ipomoea hederacea, and covered with 1-2 cm soil. Compounds of formulae 20 and 22 (wherein R is an ethyl group) of an amount of equivalent to 100 g/ha are dissolved in 20 volumes of a mixture of surfactant and liquid carrier, such as a mixture of calcium dodecylbenzenesulfonate/polyoxyethylene styrylphenyl ether/xylene/cyclohexanone=1:2:4:8 (v/v), and diluted with water of a volume equivalent to 10 L/ha, then sprayed on surface of the soil immediately after sowing. Test plants are grown in a greenhouse for 27 days after treatment to observe weed control activity and crop phytotoxicity of the test compounds.\nSeeds of the aforementioned crop plants with herbicide-resistant PPO genes are planted along with those of weeds such as Echinochloa crus-galli, Abutilon theophrasti and Ipomoea hederacea, covered with soil of 1-2 cm deep, and the plants grown for 18 days in the greenhouse. […]"}, "Abutilon theophrasti": {"system": "Abutilon theophrasti", "experiment": "Weed control test in greenhouse", "assay_type": "in vivo", "conditions": "100 g/ha; either method (soil surface after sowing, 27 days; sprayed onto plants at 18 days, 20 days)", "procedure": "as §2\n(§3) Seeds of the aforementioned crop plants with herbicide-resistant PPO genes are planted along with those of weeds such as Echinochloa crus-galli, Abutilon theophrasti and Ipomoea hederacea, covered with soil of 1-2 cm deep, and the plants grown for 18 days in the greenhouse. Compounds of formulae 20 and 22 (wherein R is an ethyl group) of an amount of equivalent to 100 g/ha are dissolved in 20 volumes of a mixture of surfactant and liquid carrier, such as the mixture of calcium dodecylbenzenesulfonate/polyoxyethylene styrylphenyl ether/xylene/cyclohexanone=1:2:4:8 (v/v), and diluted with water of a volume equivalent to 10 L/ha, then sprayed onto plants from the above. Test plants are grown in a greenhouse for 20 days after treatment for observation of weed control activity and crop phytotoxicity by test compounds."}, "Ipomoea hederacea": {"system": "Ipomoea hederacea", "experiment": "Weed control test in greenhouse", "assay_type": "in vivo", "conditions": "100 g/ha; either method (soil surface after sowing, 27 days; sprayed onto plants at 18 days, 20 days)", "procedure": "as §2, §3"}, "Echinochloa crus-galli": {"system": "Echinochloa crus-galli", "experiment": "Weed control test in greenhouse", "assay_type": "in vivo", "conditions": "100 g/ha; either method (soil surface after sowing, 27 days; sprayed onto plants at 18 days, 20 days)", "procedure": "as §2, §3"}}}
{"compound": "COC(=O)c1cc(Oc2ccc(C(F)(F)F)cc2Cl)ccc1[N+](=O)[O-]", "note": "[acifluorfen-methyl]", "values": [{"measurement": "resistance or sensitivity of GB-2951 to the herbicide", "setting": "[1]", "value": "showed resistance"}]}
{"compound": "C#CCOc1cc(N2C(=O)C3=C(CCCC3)C2=O)c(F)cc1Cl", "note": "[compound A, [N-(4-chloro-2-fluoro-5-propargyloxy)phenyl-]3,4,5,6-tetrahydrophthalimide]", "values": [{"measurement": "growth of sensitive transformants", "setting": "[2]", "value": "strongly suppressed"}, {"measurement": "resistance or sensitivity of GB-2951 to the herbicide", "setting": "[1]", "value": "showed resistance"}, {"measurement": "growth of resistant transformants", "setting": "[3]", "value": "same level of growth"}]}
{"compound": "CN(C)C(=O)Nc1ccc(Cl)c(Cl)c1", "note": "[diuron]", "values": [{"measurement": "resistance or sensitivity of GB-2951 to the herbicide", "setting": "[1]", "value": "as sensitive"}]}
{"compound": "CC(C)OC(=O)c1cc(-n2c(=O)cc(C(F)(F)F)n(C)c2=O)ccc1Cl", "note": "[formula 20]", "values": [{"measurement": "crop phytotoxicity", "setting": "[4]", "value": "no significant phytotoxicity"}, {"measurement": "weed control activity (growth)", "setting": "Abutilon theophrasti", "value": "inhibited"}, {"measurement": "weed control activity (growth)", "setting": "Ipomoea hederacea", "value": "inhibited"}, {"measurement": "weed control activity (growth)", "setting": "Echinochloa crus-galli", "value": "inhibited"}]}
{"compound": "C[n+]1ccc(-c2cc[n+](C)cc2)cc1", "note": "[paraquat]", "values": [{"measurement": "resistance or sensitivity of GB-2951 to the herbicide", "setting": "[1]", "value": "as sensitive"}]}
